Measurements published in ChEMBL document CHEMBL1201862, “PubChem BioAssay data set” (2004).
Activity calls are given as the source filed them.

Assays:
Orexin receptor type 2 [1] = target: T1, Orexin receptor type 2 (Homo sapiens, UniProt O43614); assay: Counterscreen assay for antagonists of the orexin 1 receptor (OX1R; HCRTR1): Fluorescence-based cell-based dose response assay for antagonists of the orexin 2 receptor (OX2R; HCRTR2), run by assay provider.; type: functional
T1 sequence (O43614 whole entry): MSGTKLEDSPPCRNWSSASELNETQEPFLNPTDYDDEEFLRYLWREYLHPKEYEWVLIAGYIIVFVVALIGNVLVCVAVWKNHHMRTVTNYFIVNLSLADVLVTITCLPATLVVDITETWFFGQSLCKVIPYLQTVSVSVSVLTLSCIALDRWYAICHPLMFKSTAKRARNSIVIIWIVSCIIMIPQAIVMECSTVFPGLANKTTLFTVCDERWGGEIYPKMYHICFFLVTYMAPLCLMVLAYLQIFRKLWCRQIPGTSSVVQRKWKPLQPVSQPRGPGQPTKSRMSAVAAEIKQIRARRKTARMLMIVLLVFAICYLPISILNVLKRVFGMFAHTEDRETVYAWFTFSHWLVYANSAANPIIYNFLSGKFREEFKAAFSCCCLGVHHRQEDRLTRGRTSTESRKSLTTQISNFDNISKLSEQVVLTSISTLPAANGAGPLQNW

[2] = Luminescence Cell-Based Dose Response HTS to Identify Activators of Luciferase Translation or Activity in H4 […] Cells. [Related pubchem assays: 1829 (Project Summary), 1814 (Primary HTS)]; type: functional
[3] = (§1) Counterscreen for antagonists of the orexin 1 receptor (OX1R; HCRTR1): Fluorescence-based cell-based high throughput dose response assay to identify antagonists of the parental CHO cell line. [Related pubchem assays (depositor defined):AID434989, AID435008, AID463079, AID485270, AID492963, AID492964, AID492965, AID493232, AID504699, AID504701]; type: functional
[4] = target: T2, Orexin/Hypocretin receptor type 1 (Homo sapiens, UniProt O43613); assay: (§2) Fluorescence-based cell-based high throughput dose response assay for antagonists of the orexin 1 receptor (OX1R; HCRTR1). [Related pubchem assays (depositor defined):AID434989, AID435008, AID463079, AID485270, AID492963, AID492964, AID492965, AID493232, AID504717, AID504718]; type: functional
T2 sequence (O43613 whole entry): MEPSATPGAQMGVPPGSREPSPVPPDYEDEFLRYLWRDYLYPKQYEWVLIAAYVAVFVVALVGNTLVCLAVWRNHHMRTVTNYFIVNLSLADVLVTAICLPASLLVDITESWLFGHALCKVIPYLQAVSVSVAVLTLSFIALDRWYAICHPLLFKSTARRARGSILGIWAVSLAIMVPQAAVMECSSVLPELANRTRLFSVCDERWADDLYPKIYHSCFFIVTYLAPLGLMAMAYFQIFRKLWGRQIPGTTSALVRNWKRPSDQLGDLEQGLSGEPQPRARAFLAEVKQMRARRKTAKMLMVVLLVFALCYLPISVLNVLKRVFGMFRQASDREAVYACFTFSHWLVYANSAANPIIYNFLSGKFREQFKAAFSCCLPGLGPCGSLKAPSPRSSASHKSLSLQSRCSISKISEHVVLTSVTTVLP

[5] = Luminescence Cell-Based Dose Confirmation HTS to Identify Activators of 5'UTR Stem-Loop Driven Alpha-Synuclein mRNA Translation in H4 Neuroglioblastoma Cells. [Related pubchem assays: 1829 (Project Summary), 1814 (Primary HTS)]; type: functional
CHO-K1 = assay: as §1, with “Homogeneous time resolved fluorescence (HTRF)-based” for “Fluorescence-based”, “cell-based” for “cell-based high throughput”, “CHO-K1” for “CHO”; type: functional; conditions: Cricetulus griseus;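 note: potency for inhibition of ATP-stimulated IP1 production as antagonists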
Orexin receptor type 2 [6] = target: T1, Orexin receptor type 2; assay: Counterscreen assay for antagonists of the orexin 1 receptor (OX1R; HCRTR1): Homogeneous Time Resolved Fluorescence (HTRF)-based cell-based dose response assay for antagonists of the orexin 2 receptor (OX2R; HCRTR2), run by assay provider.; type: functional
[7] = target: T2, Orexin/Hypocretin receptor type 1; assay: as §2, with “Homogeneous Time Resolved Fluorescence (HTRF)-based” for “Fluorescence-based”; type: functional
H4 = assay: Luminescence Cell-Based Dose Response HTS to Identify Activators of 5'UTR Stem-Loop Driven Prion Protein mRNA Translation in H4 Neuroglioblastoma Cells. [Related pubchem assays: 1829 (Project Summary), 1814 (Primary HTS)]; type: functional; conditions: Homo sapiens
[8] = target: Ras and Rab interactor 1/Tyrosine-protein kinase ABL1 (Homo sapiens, UniProt P00519+Q13671); type: functional;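 note: biochemical TR-FRET dose-response test measuring inhibition of binding between Rin1 and Abl proteins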
Ras and Rab interactor 1/Tyrosine-protein kinase ABL1, sequence (P00519 whole entry): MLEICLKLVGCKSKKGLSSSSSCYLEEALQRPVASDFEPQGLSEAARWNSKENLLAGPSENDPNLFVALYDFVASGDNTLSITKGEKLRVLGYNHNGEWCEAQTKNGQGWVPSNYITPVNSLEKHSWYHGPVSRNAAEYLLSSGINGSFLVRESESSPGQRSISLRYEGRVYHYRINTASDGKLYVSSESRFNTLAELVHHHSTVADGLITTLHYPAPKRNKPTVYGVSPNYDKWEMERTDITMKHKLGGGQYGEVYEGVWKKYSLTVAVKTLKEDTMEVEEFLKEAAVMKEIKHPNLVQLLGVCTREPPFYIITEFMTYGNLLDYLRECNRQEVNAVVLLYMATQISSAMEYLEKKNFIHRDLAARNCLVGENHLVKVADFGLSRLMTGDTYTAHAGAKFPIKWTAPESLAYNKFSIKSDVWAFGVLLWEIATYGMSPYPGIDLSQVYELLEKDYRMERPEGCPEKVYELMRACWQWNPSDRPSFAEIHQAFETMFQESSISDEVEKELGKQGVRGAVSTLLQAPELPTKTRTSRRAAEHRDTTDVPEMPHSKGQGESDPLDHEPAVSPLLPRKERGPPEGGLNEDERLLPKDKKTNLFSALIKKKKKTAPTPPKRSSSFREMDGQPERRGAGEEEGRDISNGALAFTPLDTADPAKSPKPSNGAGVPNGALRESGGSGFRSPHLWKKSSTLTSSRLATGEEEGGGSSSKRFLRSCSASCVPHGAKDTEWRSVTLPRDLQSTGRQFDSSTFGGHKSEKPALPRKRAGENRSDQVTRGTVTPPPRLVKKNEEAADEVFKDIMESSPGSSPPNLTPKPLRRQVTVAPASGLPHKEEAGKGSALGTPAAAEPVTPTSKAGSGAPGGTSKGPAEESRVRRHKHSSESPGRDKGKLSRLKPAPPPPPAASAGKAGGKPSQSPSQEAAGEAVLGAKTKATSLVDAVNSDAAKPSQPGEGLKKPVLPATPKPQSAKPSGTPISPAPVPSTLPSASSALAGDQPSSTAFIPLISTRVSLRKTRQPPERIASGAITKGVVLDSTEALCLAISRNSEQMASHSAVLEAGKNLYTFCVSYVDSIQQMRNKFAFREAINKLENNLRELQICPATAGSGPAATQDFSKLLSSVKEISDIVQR
Ras and Rab interactor 1/Tyrosine-protein kinase ABL1, sequence (Q13671 whole entry): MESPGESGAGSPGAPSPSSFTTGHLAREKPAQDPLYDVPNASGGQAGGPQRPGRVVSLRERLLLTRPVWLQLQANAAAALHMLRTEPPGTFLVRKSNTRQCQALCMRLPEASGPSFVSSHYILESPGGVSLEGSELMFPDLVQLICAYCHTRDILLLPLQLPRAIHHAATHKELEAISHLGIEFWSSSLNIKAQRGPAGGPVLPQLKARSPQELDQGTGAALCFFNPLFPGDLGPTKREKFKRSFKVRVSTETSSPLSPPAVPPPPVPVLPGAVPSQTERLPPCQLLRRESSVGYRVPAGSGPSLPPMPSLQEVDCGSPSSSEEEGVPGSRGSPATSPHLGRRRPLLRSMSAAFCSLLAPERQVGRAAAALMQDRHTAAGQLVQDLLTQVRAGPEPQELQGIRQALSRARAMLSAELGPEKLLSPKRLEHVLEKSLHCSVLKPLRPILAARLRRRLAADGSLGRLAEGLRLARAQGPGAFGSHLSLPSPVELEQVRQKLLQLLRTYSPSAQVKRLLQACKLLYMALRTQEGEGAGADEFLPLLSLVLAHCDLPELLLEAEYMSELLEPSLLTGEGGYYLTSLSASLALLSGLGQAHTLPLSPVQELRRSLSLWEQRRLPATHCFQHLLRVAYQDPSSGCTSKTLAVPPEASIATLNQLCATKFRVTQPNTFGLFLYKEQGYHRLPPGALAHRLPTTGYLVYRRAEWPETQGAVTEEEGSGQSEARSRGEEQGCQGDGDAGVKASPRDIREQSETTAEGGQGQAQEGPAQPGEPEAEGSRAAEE

Caspase-3 = target: T3, Caspase-3 (Homo sapiens, UniProt P42574); assay: caspase-3 inhibitors as off-family protease, SAR follow-up, selectivity assay for SENP protease inhibitor project, biochemical, luminescence, set 2 (AID 588599); type: functional
T3 sequence (P42574 whole entry): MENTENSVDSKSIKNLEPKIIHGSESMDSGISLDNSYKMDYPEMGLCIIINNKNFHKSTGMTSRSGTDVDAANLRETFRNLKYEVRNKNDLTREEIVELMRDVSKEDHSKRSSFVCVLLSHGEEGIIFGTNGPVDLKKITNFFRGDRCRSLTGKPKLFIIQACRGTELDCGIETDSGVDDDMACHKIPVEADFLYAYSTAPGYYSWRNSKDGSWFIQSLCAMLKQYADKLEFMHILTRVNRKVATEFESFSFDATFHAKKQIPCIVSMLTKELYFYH

[9] = target: T4, Sentrin-specific protease 8 (Homo sapiens, UniProt Q96LD8); assay: SENP8 protease inhibitors, SAR follow-up, biochemical, luminescence, set 2 (AID 588601); type: functional
T4 sequence (Q96LD8 whole entry): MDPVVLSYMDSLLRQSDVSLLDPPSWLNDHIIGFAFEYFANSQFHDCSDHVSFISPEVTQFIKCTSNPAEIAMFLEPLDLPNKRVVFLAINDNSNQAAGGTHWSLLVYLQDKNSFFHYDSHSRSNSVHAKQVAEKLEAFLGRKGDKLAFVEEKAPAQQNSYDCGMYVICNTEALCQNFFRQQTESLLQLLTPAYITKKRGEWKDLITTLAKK

[10] = target: T5, Sentrin-specific protease 7 (Homo sapiens, UniProt Q9BQF6); assay: SENP7 protease inhibitors, SAR follow-up, biochemical, luminescence, set 2 (AID 588600); type: functional
T5 sequence (Q9BQF6 whole entry): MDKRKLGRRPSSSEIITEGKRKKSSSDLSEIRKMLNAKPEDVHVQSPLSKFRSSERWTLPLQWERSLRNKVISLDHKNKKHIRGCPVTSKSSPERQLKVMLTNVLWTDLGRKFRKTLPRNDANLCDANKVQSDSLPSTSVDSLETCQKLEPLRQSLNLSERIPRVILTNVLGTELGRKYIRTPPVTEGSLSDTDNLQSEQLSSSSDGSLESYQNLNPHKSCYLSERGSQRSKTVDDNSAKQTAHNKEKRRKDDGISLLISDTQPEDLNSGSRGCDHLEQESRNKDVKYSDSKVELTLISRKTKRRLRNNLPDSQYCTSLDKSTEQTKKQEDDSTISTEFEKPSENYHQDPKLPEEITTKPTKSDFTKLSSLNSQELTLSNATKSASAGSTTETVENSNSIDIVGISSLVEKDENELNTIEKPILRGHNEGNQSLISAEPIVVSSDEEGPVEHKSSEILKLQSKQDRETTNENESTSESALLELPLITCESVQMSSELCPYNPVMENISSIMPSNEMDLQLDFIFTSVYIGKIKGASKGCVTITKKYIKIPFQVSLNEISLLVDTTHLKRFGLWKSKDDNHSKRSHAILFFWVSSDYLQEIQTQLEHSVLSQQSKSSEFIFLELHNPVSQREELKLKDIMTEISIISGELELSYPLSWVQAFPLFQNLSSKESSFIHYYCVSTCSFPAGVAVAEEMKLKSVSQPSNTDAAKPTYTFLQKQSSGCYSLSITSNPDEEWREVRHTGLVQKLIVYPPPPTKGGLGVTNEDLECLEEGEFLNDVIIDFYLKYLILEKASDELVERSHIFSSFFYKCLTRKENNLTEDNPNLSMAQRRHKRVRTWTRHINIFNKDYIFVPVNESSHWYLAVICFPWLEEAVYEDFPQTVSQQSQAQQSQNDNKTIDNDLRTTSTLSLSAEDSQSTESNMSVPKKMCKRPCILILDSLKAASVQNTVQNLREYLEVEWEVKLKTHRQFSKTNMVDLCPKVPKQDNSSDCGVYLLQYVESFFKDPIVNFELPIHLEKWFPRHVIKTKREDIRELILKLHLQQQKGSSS

[11] = target: T6, Sentrin-specific protease 6 (Homo sapiens, UniProt Q9GZR1); assay: SENP6 protease inhibitors, SAR follow-up, biochemical, luminescence, set 2 (AID 588598); type: functional
T6 sequence (Q9GZR1 whole entry): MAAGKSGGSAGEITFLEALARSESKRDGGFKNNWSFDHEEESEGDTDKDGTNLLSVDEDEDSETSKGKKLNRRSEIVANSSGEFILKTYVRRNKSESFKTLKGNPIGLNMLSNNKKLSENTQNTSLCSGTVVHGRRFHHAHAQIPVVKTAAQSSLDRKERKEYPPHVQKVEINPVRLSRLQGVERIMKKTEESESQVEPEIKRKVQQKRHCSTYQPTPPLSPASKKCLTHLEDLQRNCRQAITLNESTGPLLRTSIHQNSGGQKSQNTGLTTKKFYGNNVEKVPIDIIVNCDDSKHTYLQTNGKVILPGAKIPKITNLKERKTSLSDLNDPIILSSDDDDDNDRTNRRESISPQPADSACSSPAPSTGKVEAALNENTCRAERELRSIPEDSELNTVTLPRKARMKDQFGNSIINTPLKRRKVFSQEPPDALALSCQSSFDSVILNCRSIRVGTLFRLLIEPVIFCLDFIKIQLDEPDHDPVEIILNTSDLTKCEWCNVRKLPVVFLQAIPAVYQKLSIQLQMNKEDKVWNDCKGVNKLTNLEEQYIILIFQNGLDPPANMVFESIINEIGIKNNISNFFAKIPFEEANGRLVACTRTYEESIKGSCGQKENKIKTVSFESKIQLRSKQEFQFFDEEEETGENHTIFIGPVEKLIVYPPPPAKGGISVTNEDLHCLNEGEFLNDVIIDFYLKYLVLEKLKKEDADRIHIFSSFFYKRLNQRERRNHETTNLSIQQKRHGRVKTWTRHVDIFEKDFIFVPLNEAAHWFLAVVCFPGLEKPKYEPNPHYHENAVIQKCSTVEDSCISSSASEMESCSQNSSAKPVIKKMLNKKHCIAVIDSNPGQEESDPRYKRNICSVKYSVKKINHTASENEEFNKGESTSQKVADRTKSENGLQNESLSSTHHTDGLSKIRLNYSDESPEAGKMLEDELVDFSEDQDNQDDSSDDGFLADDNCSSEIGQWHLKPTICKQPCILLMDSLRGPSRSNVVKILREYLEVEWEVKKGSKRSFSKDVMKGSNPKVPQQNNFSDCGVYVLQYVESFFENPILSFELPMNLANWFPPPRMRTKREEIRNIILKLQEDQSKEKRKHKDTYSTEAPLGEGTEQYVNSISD

Melanocortin receptor 4 = Melanocortin receptor 4 (Homo sapiens, UniProt P32245); type: functional, cell-based;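 note: Cell-based assay with luminescence read-out, confirmatory dose-response testing for agonist activity of biased ligands at MC4R; human U2OS cells with tagged receptor and beta-arrestin; potency of agonists that increase receptor coupling to beta-arrestin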
Melanocortin receptor 4, sequence (P32245 whole entry): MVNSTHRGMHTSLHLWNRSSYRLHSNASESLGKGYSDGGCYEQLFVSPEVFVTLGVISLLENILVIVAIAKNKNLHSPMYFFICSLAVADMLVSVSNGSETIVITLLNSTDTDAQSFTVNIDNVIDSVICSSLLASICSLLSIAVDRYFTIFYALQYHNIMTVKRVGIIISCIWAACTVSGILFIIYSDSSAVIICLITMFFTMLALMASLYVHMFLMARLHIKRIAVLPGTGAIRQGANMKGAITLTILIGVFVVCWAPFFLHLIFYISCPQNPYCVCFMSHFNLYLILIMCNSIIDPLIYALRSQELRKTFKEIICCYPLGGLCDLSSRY

Aurora kinase B = Aurora kinase B (Homo sapiens, UniProt Q96GD4); type: functional
Aurora kinase B, sequence (Q96GD4 whole entry): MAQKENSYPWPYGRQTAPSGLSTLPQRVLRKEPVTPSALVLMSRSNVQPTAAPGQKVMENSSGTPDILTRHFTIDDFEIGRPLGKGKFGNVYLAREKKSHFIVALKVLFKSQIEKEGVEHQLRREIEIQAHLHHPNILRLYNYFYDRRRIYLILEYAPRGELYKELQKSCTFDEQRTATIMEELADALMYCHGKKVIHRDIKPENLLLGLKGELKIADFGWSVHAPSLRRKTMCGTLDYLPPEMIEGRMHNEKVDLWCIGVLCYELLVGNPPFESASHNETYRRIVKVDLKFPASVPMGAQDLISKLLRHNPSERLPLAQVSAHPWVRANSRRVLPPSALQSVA

Aurora kinase A = Aurora kinase A (Homo sapiens, UniProt O14965); type: functional;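 note: value from the Navigating the Kinome kinase panel profiling, panel entry STK6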
Aurora kinase A, sequence (O14965 whole entry): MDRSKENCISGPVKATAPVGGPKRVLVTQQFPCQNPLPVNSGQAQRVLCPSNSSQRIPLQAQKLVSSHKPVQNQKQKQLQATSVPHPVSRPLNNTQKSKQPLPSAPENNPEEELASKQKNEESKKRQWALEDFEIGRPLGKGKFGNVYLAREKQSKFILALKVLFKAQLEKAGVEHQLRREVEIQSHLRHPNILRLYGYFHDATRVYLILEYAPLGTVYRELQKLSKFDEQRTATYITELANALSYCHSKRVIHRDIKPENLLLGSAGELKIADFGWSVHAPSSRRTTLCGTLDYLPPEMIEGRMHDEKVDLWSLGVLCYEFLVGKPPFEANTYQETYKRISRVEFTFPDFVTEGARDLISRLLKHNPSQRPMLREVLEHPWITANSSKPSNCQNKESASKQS

[12] = target: Vascular endothelial growth factor receptor 2 (Homo sapiens, UniProt P35968); type: functional
Vascular endothelial growth factor receptor 2, sequence (P35968 whole entry): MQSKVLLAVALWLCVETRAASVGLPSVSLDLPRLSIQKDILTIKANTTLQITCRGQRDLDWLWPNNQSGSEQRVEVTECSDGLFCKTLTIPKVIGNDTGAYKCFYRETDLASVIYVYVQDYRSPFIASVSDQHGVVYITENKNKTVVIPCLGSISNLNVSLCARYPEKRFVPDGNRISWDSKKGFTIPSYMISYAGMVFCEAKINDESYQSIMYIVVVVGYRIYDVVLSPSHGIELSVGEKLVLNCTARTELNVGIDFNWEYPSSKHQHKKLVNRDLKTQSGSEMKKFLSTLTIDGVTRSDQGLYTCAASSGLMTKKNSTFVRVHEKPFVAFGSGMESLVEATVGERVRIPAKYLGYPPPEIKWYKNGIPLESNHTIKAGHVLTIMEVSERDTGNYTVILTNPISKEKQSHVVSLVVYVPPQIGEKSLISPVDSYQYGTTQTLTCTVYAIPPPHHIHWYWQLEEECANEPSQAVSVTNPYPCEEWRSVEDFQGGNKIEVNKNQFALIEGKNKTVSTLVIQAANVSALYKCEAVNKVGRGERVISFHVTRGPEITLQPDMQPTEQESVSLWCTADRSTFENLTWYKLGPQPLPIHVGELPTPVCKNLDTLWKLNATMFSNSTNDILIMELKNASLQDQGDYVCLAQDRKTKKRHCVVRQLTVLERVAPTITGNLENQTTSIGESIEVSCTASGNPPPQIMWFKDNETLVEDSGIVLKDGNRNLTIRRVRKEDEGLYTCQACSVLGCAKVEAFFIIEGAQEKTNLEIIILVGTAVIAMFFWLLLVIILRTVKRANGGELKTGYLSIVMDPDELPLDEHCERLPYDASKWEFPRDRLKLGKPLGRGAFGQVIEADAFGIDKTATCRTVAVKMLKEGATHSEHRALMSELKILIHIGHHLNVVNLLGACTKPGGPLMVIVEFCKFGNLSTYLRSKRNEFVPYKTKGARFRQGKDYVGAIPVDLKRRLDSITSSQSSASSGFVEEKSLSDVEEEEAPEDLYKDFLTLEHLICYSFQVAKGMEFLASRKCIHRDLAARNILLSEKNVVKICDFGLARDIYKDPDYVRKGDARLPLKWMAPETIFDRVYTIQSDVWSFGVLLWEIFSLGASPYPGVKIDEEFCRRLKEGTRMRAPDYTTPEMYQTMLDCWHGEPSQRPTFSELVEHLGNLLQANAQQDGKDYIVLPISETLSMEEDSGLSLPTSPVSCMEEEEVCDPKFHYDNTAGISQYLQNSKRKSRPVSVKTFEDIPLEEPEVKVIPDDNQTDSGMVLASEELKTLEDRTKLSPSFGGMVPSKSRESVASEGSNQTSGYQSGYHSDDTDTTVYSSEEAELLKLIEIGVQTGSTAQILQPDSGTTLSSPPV

Structure (SMILES): Cc1nc2c(-c3ccc(Cl)cc3)cnn2c2c1CCC2
- IC50 (Orexin receptor type 2 [1]): > 88.8 µM (inactive)
- EC50 [2]: 11.1 µM (active)
- IC50 [3]: > 49.8 µM (inactive)
- IC50 [4]: 15 µM (inactive)
- EC50 [5]: > 120 µM (not active)
- IC50 (CHO-K1): > 66.3 µM (inactive)
- IC50 (Orexin receptor type 2 [6]): > 50 µM (inactive)
- IC50 [7]: 4.59 µM (active)
- EC50 (H4): 24.5 µM (active)

Structure (SMILES): COC(=O)c1ccc(COC(=O)C2CCN(S(=O)(=O)c3ccc(C)c(C)c3)CC2)o1
- IC50 [8]: 12.4 µM (inactive)

Structure (SMILES): CCn1c2ccccc2c2cc(NC(=O)c3cccc(OC)c3)ccc21
- IC50 (Orexin receptor type 2 [1]): 77.6 µM (inactive)
- EC50 [2]: 56.6 µM (active)
- IC50 [3]: > 49.8 µM (inactive)
- IC50 [4]: 0.965 µM (active)
- EC50 [5]: 34.8 µM (active)
- IC50 (CHO-K1): > 66.2 µM (inactive)
- IC50 (Orexin receptor type 2 [6]): > 50 µM (inactive)
- IC50 [7]: 0.2 µM (active)
- EC50 (H4): 40.1 µM (active)

Structure (SMILES): COc1ccc(N2CCN(C(=O)C(=O)c3c(C)[nH]c4ccccc34)CC2)cc1
- IC50 (Caspase-3): > 99 µM (inactive)
- IC50 [9]: > 99 µM (inactive)
- IC50 [10]: > 99 µM (inactive)
- IC50 [11]: > 99 µM (inactive)

Structure (SMILES): NC(Cc1ccc(C(F)(F)F)cc1)c1csc(NC(=O)Nc2ccccc2Cl)n1 (stereo not given)
- EC50 (Melanocortin receptor 4): > 89.2 µM (inactive)

Structure (SMILES): Cc1ccc(-c2c(C#N)c(N)nc3cc(C)nn23)cc1
- Ki (Aurora kinase B): 0.1 µM (active)
- Ki (Aurora kinase A): 0.501 µM (active)
- Ki [12]: 3.98 µM (active)

Structure (SMILES): CCCCN1CCN(c2ccc(-c3nc4c(C(N)=O)cccc4[nH]3)cn2)CC1
- Ki (Aurora kinase B): 0.0794 µM (active)
- Ki (Aurora kinase A): 1.26 µM (active)
- Ki [12]: > 5.01 µM (inactive)
